Experiments:
Format in all cases: in vivo
[1] = tested on: fall armyworm larvae (Spodoptera frugiperda); experiment: Spodoptera frugiperda spray test; conditions: 168 h, read-out: activity (mortality)
Outline: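 Compound in acetone/DMF, diluted in water with 1000 ppm alkylarylpolyglycol ether emulsifier, sprayed on maize leaf sections. Dried leaves infested with fall armyworm larvae; % mortality after 7 days (100% = all killed, 0% = none).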

[2] = tested on: Aedes aegypti strain MONHEIM; experiment: Aedes aegypti test (AEDSAE surface treatment & contact assay); conditions: 24 hours after contact, read-out: efficacy (mortality); for mortality at 4 mg/m2: surface concentration 4 mg/m^2, exposure 30 minutes; for mortality at 20 mg/m2: surface concentration 20 mg/m^2, exposure 30 minutes
Outline: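 Compound in acetone (2 mg/ml) with 2000 ppm RME pipetted onto glazed tile and dried; adult Aedes aegypti MONHEIM exposed 30 min. Percent mortality scored 24 h after contact.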

[3] = tested on: adult cat fleas (Ctenocephalides felis); experiment: Ctenocephalides felis in-vitro contact test, adult cat flea; conditions: application rate 5 μg/cm^2 (=500 g/ha), after 48 hours, read-out: activity (efficacy: fleas dead or moribund)
Outline: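 Acetone solutions of compound coated onto inner walls of glass tubes (900 ppm giving […]); after drying, 5-10 adult Ctenocephalides felis added and held at room temperature. At 48 h, fleas placed on a 45-50° C heating plate; those unable to climb away scored dead or moribund, expressed as % efficacy.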

[4] = tested on: green peach aphid (Myzus persicae); experiment: Myzus persicae oral test; conditions: 120 h, application rate 4 ppm, after 5 days
Outline: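 Oral uptake format: water-diluted acetone concentrate of compound is blended into IPL41 medium carrying 33%+15% sugar and offered under a parafilm membrane. Percentage of dead insects is recorded after 5 days.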

[5] = tested on: adult unfed cat fleas (Ctenocephalides felis); experiment: Ctenocephalides felis oral test; conditions: 48 h, read-out: activity (mortality)
Outline: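 About 20 adult unfed fleas fed through parafilm on cattle blood containing compound (DMSO stock diluted in blood), blood held at 37 °C and fleas at room temperature. Mortality (%) scored after 2 days.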

[6] = tested on: larvae of the southern green stink bug (Nezara viridula); experiment: Nezara viridula spray test; conditions: 96 h, after 4 days; for mortality at 100 g/ha: application rate 100 g/ha; for mortality at 500 g/ha: application rate 500 g/ha
Outline: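 Compound in acetone/dimethylformamide, diluted in water with 1000 ppm alkylarylpolyglycol ether emulsifier, sprayed onto barley plants carrying stink bug larvae. Mortality (%) scored after 4 days, 100% meaning all insects killed.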

[7] = tested on: green peach aphid (Myzus persicae); experiment: Myzus persicae spray test; conditions: 120 h, after 5 days; for mortality at 100 g/ha: application rate 100 g/ha; for mortality at 500 g/ha: application rate 500 g/ha
Outline: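 Chinese cabbage leaf disks carrying all instars of M. persicae sprayed with compound in acetone/DMF, diluted in water with 1000 ppm alkylarylpolyglycol ether emulsifier. Percent mortality scored after 5 days (100% = all aphids killed).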

[8] = tested on: Rhipicephalus microplus larvae (strain Parkhurst, resistant against synthetic pyrethroids); experiment: Rhipicephalus (Boophilus) microplus in-vitro contact test, larval cattle tick; conditions: after 48 hours, read-out: activity (efficacy: larvae dead or moribund); for pest or weed control at 100 g/ha: application rate 1 pg/cm^2 (=100 g/ha); for pest or weed control at 500 g/ha: application rate 5 pg/cm^2 (=500 g/ha)
Outline: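 Acetone solutions coated onto inner walls of glass tubes by rotation (900 ppm giving 5 μg/cm^2); after evaporation, 20-50 larvae added per tube and held at 27° C., 85% relative humidity. Efficacy read after 48 h from negative geotactic behaviour; 100% = all larvae dead or moribund.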

C[C@H](NC(=O)c1cc(Cl)cc(S(=O)(=O)C2CC2)c1)c1nc(C2CC2)nn1-c1ncc(Cl)cn1 [I-25]
mortality at 100 g/ha [1]: 100% | mortality at 4 mg/m2 [2]: 80 to 100% | mortality at 20 mg/m2 [2]: 80 to 100% | pest or weed control at 5 µg/cm2 [3]: 100% | mortality at 4 ppm [4]: 100% | mortality at 100 ppm [5]: 100% | mortality at 100 g/ha [6]: 100% | mortality at 100 g/ha [7]: 100% | pest or weed control at 100 g/ha [8]: 100% | pest or weed control at 500 g/ha [8]: 100%

CC(NC(=O)c1cc(C(F)(F)F)cc(S(C)(=O)=O)c1)c1nc(Cl)nn1-c1ncccn1 (stereo not drawn) [I-30]
mortality at 4 mg/m2 [2]: 80 to 100% | mortality at 20 mg/m2 [2]: 80 to 100% | pest or weed control at 5 µg/cm2 [3]: 100% | mortality at 4 ppm [4]: 100% | mortality at 100 ppm [5]: 100% | mortality at 100 g/ha [6]: 100% | mortality at 100 g/ha [7]: 90% | pest or weed control at 100 g/ha [8]: 100% | pest or weed control at 500 g/ha [8]: 100%

CSc1cc(C#N)cc(C(=O)N[C@@H](C)c2ncnn2-c2ccc(C#N)cn2)c1 [II-3]
mortality at 500 g/ha [1]: 100% | mortality at 4 mg/m2 [2]: 80 to 100% | mortality at 20 mg/m2 [2]: 80 to 100% | pest or weed control at 5 µg/cm2 [3]: 100% | mortality at 4 ppm [4]: 100% | mortality at 100 ppm [5]: 100% | mortality at 100 g/ha [6]: 100% | mortality at 500 g/ha [6]: 100% | mortality at 100 g/ha [7]: 100% | mortality at 500 g/ha [7]: 100% | pest or weed control at 100 g/ha [8]: 90% | pest or weed control at 500 g/ha [8]: 90%

C[C@H](NC(=O)c1cc(OC(F)(F)F)cc(C2CC2)c1)c1ncnn1-c1ccccn1 [II-22]
mortality at 100 g/ha [1]: 100% | mortality at 500 g/ha [1]: 100% | mortality at 4 mg/m2 [2]: 80 to 100% | mortality at 20 mg/m2 [2]: 80 to 100% | pest or weed control at 5 µg/cm2 [3]: 100% | mortality at 4 ppm [4]: 100% | mortality at 100 ppm [5]: 100% | mortality at 500 g/ha [6]: 100% | mortality at 500 g/ha [7]: 90% | pest or weed control at 100 g/ha [8]: 100% | pest or weed control at 500 g/ha [8]: 100%

C[C@H](NC(=O)c1cc(C#N)cc(S(C)(=O)=O)c1)c1ncnn1-c1ccc(Cl)cn1 [II-29]
mortality at 100 g/ha [1]: 83% | mortality at 500 g/ha [1]: 100% | mortality at 4 mg/m2 [2]: 80 to 100% | mortality at 20 mg/m2 [2]: 80 to 100% | pest or weed control at 5 µg/cm2 [3]: 100% | mortality at 4 ppm [4]: 100% | mortality at 100 ppm [5]: 100% | mortality at 100 g/ha [6]: 100% | mortality at 500 g/ha [6]: 100% | mortality at 100 g/ha [7]: 90% | mortality at 500 g/ha [7]: 100% | pest or weed control at 100 g/ha [8]: 100% | pest or weed control at 500 g/ha [8]: 100%

C[C@H](NC(=O)c1cc(Cl)cc(S(=O)(=O)C(F)F)c1)c1ncnn1-c1ncccn1 [II-34]
mortality at 100 g/ha [1]: 83% | mortality at 500 g/ha [1]: 100% | mortality at 4 mg/m2 [2]: 80 to 100% | mortality at 20 mg/m2 [2]: 80 to 100% | pest or weed control at 5 µg/cm2 [3]: 100% | mortality at 4 ppm [4]: 100% | mortality at 100 ppm [5]: 100% | mortality at 100 g/ha [6]: 100% | mortality at 500 g/ha [6]: 100% | mortality at 100 g/ha [7]: 100% | mortality at 500 g/ha [7]: 100% | pest or weed control at 100 g/ha [8]: 100% | pest or weed control at 500 g/ha [8]: 90%

Cc1nc([C@H](C)NC(=O)c2cc(Cl)cc(S(=O)(=O)C(F)F)c2)n(-c2ccc(C#N)cn2)n1 [II-35]
mortality at 4 mg/m2 [2]: 80 to 100% | mortality at 20 mg/m2 [2]: 80 to 100% | pest or weed control at 5 µg/cm2 [3]: 100% | mortality at 4 ppm [4]: 100% | mortality at 100 ppm [5]: 100% | mortality at 100 g/ha [6]: 100% | mortality at 500 g/ha [6]: 100% | mortality at 100 g/ha [7]: 100% | mortality at 500 g/ha [7]: 100% | pest or weed control at 100 g/ha [8]: 100% | pest or weed control at 500 g/ha [8]: 100%

Cc1nc([C@H](C)NC(=O)c2cc(Cl)cc(S(=O)(=O)C(F)F)c2)n(-c2ccc(Cl)cn2)n1 [II-36]
mortality at 100 g/ha [1]: 100% | mortality at 500 g/ha [1]: 100% | mortality at 4 mg/m2 [2]: 80 to 100% | mortality at 20 mg/m2 [2]: 80 to 100% | pest or weed control at 5 µg/cm2 [3]: 100% | mortality at 4 ppm [4]: 100% | mortality at 100 ppm [5]: 100% | mortality at 100 g/ha [6]: 100% | mortality at 500 g/ha [6]: 100% | mortality at 500 g/ha [7]: 90% | pest or weed control at 100 g/ha [8]: 100% | pest or weed control at 500 g/ha [8]: 100%

C[C@H](NC(=O)c1cc(Cl)cc(S(C)(=O)=O)c1)c1ncnn1-c1ncc(OC(F)F)cn1 [II-42]
mortality at 4 mg/m2 [2]: 80 to 100% | mortality at 20 mg/m2 [2]: 80 to 100% | pest or weed control at 5 µg/cm2 [3]: 100% | mortality at 4 ppm [4]: 100% | mortality at 100 ppm [5]: 100% | mortality at 100 g/ha [6]: 100% | mortality at 100 g/ha [7]: 90% | pest or weed control at 100 g/ha [8]: 100% | pest or weed control at 500 g/ha [8]: 100%

C[C@H](NC(=O)c1cc(C(F)(F)F)cc(C2(C#N)CC2)c1)c1ncnn1-c1ccc(C#N)cn1 [II-47]
mortality at 100 g/ha [1]: 100% | mortality at 4 mg/m2 [2]: 80 to 100% | mortality at 20 mg/m2 [2]: 80 to 100% | pest or weed control at 5 µg/cm2 [3]: 100% | mortality at 4 ppm [4]: 100% | mortality at 100 ppm [5]: 100% | mortality at 100 g/ha [6]: 100% | mortality at 100 g/ha [7]: 100% | pest or weed control at 100 g/ha [8]: 100% | pest or weed control at 500 g/ha [8]: 100%

C[C@H](NC(=O)c1cc(C(F)(F)F)cc(C2(C#N)CC2)c1)c1ncnn1-c1ccc(Cl)cn1 [II-48]
mortality at 100 g/ha [1]: 100% | mortality at 4 mg/m2 [2]: 80 to 100% | mortality at 20 mg/m2 [2]: 80 to 100% | pest or weed control at 5 µg/cm2 [3]: 90% | mortality at 4 ppm [4]: 100% | mortality at 100 ppm [5]: 100% | mortality at 100 g/ha [6]: 100% | mortality at 100 g/ha [7]: 100% | pest or weed control at 100 g/ha [8]: 100% | pest or weed control at 500 g/ha [8]: 100%

Cc1nc([C@H](C)NC(=O)c2cc(C(F)(F)F)cc(C3(C#N)CC3)c2)n(-c2ccc(C#N)cn2)n1 [II-49]
mortality at 100 g/ha [1]: 100% | mortality at 4 mg/m2 [2]: 80 to 100% | mortality at 20 mg/m2 [2]: 80 to 100% | pest or weed control at 5 µg/cm2 [3]: 100% | mortality at 4 ppm [4]: 100% | mortality at 100 ppm [5]: 100% | mortality at 100 g/ha [6]: 100% | mortality at 100 g/ha [7]: 100% | pest or weed control at 100 g/ha [8]: 100% | pest or weed control at 500 g/ha [8]: 100%

Cc1nc([C@H](C)NC(=O)c2cc(C(F)(F)F)cc(C3(C#N)CC3)c2)n(-c2ccc(Cl)cn2)n1 [II-50]
mortality at 100 g/ha [1]: 100% | mortality at 4 mg/m2 [2]: 80 to 100% | mortality at 20 mg/m2 [2]: 80 to 100% | pest or weed control at 5 µg/cm2 [3]: 100% | mortality at 4 ppm [4]: 100% | mortality at 100 ppm [5]: 100% | mortality at 100 g/ha [6]: 100% | mortality at 100 g/ha [7]: 100% | pest or weed control at 100 g/ha [8]: 100% | pest or weed control at 500 g/ha [8]: 100%

C[C@H](NC(=O)c1cc(C#N)cc(C2CC2)c1)c1ncnn1-c1ncccn1 [II-54]
mortality at 100 g/ha [1]: 83% | mortality at 4 mg/m2 [2]: 80 to 100% | mortality at 20 mg/m2 [2]: 80 to 100% | pest or weed control at 5 µg/cm2 [3]: 100% | mortality at 4 ppm [4]: 100% | mortality at 100 ppm [5]: 100% | mortality at 100 g/ha [6]: 100% | mortality at 100 g/ha [7]: 100% | pest or weed control at 100 g/ha [8]: 90% | pest or weed control at 500 g/ha [8]: 80%

— patent US20260206761A1, “HETEROARYL-TRIAZOLE COMPOUNDS AS PESTICIDES” (Bayer Aktiengesellschaft, priority 2019, published 2026)
